Laboratory results published in US20230212180A1, “SUBSTITUTED PYRAZINE COMPOUND, PHARMACEUTICAL COMPOSITION COMPRISING SAME, AND USE THEREOF” (Sichuan Kelun-Biotech Biopharmaceutical Co., Ltd., priority 2020, published 2023).

Tests used:
[1] = test system: KYSE-520 cell (human esophageal squamous cell carcinoma cell); assay: Inhibition of the proliferation activity of KYSE-520 cell (CellTiter-Glo); type: cell-based; settings: 120 h, KYSE-520 cell proliferation, 5 days
Method: Test Example 2: Experiment on the Inhibition of the Proliferation Activity of KYSE-520 Cell (Human Esophageal Squamous Cell Carcinoma Cell)
cell: KYSE-520 (JCRB Cell Bank);
kit: CellTiter-Glo® Luminescent Cell Viability Assay Kit (Promega).
inoculation amount of cell: 1500 cells/well;
incubation conditions for compound: 37° C., 5% CO2;
incubation duration: 5 days;
detecting temperature: room temperature;
chemiluminescence detection using the BMG PHERAstar FS reader.
Cells were cultured in a medium containing 10% fetal bovine serum under the culture conditions of 37° C. and 5% CO2. An appropriate amount of cells were plated into a 96-well plate and cultured overnight in an incubator to allow the cells to adhere to the wall. The following day, the medium was removed and a complete medium containing a pre-diluted compound was added and incubated at 37° C. for 5 days. On the fifth day, the detection reagent CellTiter-Glo® was added into each well. Chemiluminescence was adopted to detect the relative luminescence units (RLUs) of the wells.
The result of a well containing cell-free medium, treated with CellTiter-Glo®, was obtained as the blank value. Cell viability (%)=(sample RLU−blank RLU)/(vehicle RLU−blank RLU)×100%, and maximum inhibition rate (%)=100%−cell viabilitymax. conc. (%). The half maximal inhibitory concentration (IC50) of the compound was calculated by fitting the curve according to the four-parameter logistic model.

[2] = target: T1, hERG (Homo sapiens, UniProt Q12809); assay: Biochemical assay for hERG inhibition (Predictor hERG Fluorescence Polarization Assay Kit); type: binding
T1 construct: purchased ThermoFisher
T1 sequence (Q12809 whole entry): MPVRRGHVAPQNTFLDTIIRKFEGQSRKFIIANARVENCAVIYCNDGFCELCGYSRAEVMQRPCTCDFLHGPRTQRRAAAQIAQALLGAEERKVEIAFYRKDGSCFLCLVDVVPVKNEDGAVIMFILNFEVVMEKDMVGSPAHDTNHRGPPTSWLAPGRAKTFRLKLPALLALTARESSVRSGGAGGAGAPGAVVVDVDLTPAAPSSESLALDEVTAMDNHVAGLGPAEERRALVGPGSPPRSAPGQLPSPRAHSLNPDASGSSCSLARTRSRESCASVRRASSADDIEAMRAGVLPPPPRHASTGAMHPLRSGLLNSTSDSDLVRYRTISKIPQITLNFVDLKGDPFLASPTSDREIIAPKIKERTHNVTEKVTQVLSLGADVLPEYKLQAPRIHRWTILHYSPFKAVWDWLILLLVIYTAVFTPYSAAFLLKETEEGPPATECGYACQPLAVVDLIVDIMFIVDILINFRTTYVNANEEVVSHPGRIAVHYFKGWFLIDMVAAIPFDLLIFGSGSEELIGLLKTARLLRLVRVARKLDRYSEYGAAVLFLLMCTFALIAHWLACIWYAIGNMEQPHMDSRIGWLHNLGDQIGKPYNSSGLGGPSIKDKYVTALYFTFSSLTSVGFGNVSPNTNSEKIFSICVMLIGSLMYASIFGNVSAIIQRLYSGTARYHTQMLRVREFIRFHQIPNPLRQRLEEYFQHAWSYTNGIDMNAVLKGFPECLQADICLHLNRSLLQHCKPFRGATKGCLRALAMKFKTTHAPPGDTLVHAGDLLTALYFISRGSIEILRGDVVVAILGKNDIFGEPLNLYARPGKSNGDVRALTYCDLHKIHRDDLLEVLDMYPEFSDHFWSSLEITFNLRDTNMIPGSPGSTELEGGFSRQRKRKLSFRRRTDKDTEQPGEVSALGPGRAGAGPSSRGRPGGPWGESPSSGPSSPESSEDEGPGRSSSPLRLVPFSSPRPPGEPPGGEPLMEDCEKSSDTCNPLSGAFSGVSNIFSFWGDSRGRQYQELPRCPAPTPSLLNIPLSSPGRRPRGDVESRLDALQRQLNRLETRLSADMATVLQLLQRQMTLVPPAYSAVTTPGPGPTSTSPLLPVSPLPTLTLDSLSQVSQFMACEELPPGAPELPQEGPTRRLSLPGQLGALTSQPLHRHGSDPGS
Method: Test Example 3: Biochemical Assay for hERG Inhibition
kit: Predictor™ hERG Fluorescence Polarization Assay Kit (ThermoFisher) containing:
Compound E4031 as a positive control;
tracer concentration: 1 nM;
incubation duration: 2 hours;
parameters for microplate reader: BMG PHERAstar FS fluorescence microplate reader.
Test group: The test compounds at different concentrations were added into a microplate containing hERG cell membrane, and the tracer with a high affinity for hERG was then added into each well. The microplate was incubated at 25° C. for 2 hours before detection of the change in fluorescence polarization value (mP) (excitation wavelength: 540 nm; emission wavelength: 590 nm) using a multi-mode microplate reader.
Positive control group: The experimental method for the positive control group was the same as that for the test group, except that the test compound was replaced with 30 μM Compound E4031.
Blank control group: The experimental method for the blank control group was the same as that for the test group, except that the test compound was replaced with the hERG buffer and that the hERG cell membrane was not added.
Based on the data ratios, the percentage inhibition (%) of the compounds of the present disclosure against hERG at different concentrations was calculated and the range of the half maximal inhibitory concentration (IC50) of the compounds was determined. Percentage inhibition (%)=(1−(mP of the test compound−mP of the positive control group)/(mP of the blank control group−mP of the positive control group))×100%.

[3] = target: T2, recombinant full-length human PTPN11 (SHP2) (Homo sapiens, UniProt Q06124); assay: Inhibition of in vitro enzyme activity of SHP2 (DiFMUP fluorescence endpoint assay); type: biochemical; settings: SHP2 0.5 nM, DiFMUP 200 μM, IRS-1 0.5 μM; 60 min incubation
T2 construct: recombinant full-length human PTPN11 (SHP2), active (SignalChem); purchased SignalChem
T2 sequence (Q06124 1-593): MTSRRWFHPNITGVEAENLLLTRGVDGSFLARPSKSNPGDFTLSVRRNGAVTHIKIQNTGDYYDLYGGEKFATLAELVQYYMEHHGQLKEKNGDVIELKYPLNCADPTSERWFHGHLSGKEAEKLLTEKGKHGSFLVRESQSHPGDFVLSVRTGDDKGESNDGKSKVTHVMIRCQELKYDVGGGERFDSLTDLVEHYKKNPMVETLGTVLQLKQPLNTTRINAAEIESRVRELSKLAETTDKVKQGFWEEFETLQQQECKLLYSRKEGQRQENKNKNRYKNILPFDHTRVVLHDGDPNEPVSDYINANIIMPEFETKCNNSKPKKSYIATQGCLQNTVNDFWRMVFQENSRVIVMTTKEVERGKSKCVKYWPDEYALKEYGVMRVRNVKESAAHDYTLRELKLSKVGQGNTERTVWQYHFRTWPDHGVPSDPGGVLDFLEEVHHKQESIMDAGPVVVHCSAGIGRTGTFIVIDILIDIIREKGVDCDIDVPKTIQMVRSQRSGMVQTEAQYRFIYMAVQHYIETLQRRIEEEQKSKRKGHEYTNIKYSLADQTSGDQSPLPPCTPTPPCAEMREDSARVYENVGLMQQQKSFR
Method: Test Example 1: Experiment on the Inhibition of In Vitro Enzyme Activity of SHP2 (Protein Phosphatase)
phosphatase: recombinant full-length human PTPN11 (SHP2), active (SignalChem);
substrate: 6,8-difluoro-4-methylumbelliferyl phosphate (DiFMUP) (Invitrogen);
activating peptide: IRS1_pY1172(dPEG8)pY1222 (IRS1) (BPS Bioscience);
terminator: bpv(phen) (bpv) (Abcam).
SHP2 concentration: 0.5 nM;
DiFMUP concentration: 200 μM;
IRS-1 concentration: 0.5 μM;
bpv concentration: 160 μM;
buffer systems: 60 mM Hepes pH 7.2; 75 mM NaCl; 75 mM KCl; 0.05% surfactant P20; 1 mM EDTA; 5 mM DTT;
incubation duration of compound and enzyme: 60 minutes;
reaction time of enzyme and substrate: 30 minutes;
parameters for microplate reader: BMG PHERAstar fluorescence microplate reader at an excitation wavelength of 340 nm and an emission wavelength of 450 nm.
Test group: A mixture of the test compound and the phosphatase SHP2 together with the activating peptide IRS-1 were incubated in the buffer system at room temperature for 60 minutes. The substrate DiFMUP was added to initiate the reaction and incubated at room temperature for 30 minutes. Thereafter, bpv was added to terminate the reaction. The reaction plate was placed in the microplate reader, and the fluorescence intensities of the wells in the plate were measured using an endpoint assay.
Negative group: The experimental method for the negative group was the same as that for the test group, except that the test compound was substituted with 0.05% aqueous solution of DMSO.
Blank group: The experimental method for the blank group was the same as that for the test group, except that the test compound was substituted with 0.05% aqueous solution of DMSO and that SHP2 was not added.
The relative inhibitory activity was calculated for the test group at each concentration based on the following equation: inhibition rate (%)=100%−(the fluorescence intensity of the test group−the fluorescence intensity of the blank group)/(the fluorescence intensity of the negative group−the fluorescence intensity of the blank group)×100%. The half maximal inhibitory concentration (IC50) of the compound was calculated by fitting the curve according to the four-parameter logistic model.

Compound | IC50 [1] | IC50 [2] | IC50 [3]
C[C@@H]1OCC2(CCN(c3ncc(Sc4ccnc(N5CCCC5CO)c4Cl)nc3CF)CC2)[C@@H]1N (stereo partly drawn) [Example 4, (1-(4-(5-((3S,4S)-4-amino-3-methyl-2-oxa-8-azaspiro[4.5]decan-8-yl)-6-(fluoromethyl)pyrazin-2-ylthio)-3-chloropyridin-2-yl)pyrrolidin-2-yl)methanol] | 170 nM | > 10000 nM | 4.1 nM
C[C@@H]1OCC2(CCN(c3ncc(Sc4ccnc(N5CC(F)(CO)C5)c4Cl)nc3CO)CC2)[C@@H]1N [Example 39, (3-((3S,4S)-4-amino-3-methyl-2-oxa-8-azaspiro[4.5]decan-8-yl)-6-(3-chloro-2-(3-fluoro-3-(hydroxymethyl)azetidin-1-yl)pyridin-4-ylthio)pyrazin-2-yl)methanol] | 20 nM | > 10000 nM | 1.4 nM
C[C@@H]1OCC2(CCN(c3ncc(Sc4ccnc(N5CC(C(C)(C)C#N)C5)c4Cl)nc3CO)CC2)[C@@H]1N [Example 30, 2-(1-(4-(5-((3S,4S)-4-amino-3-methyl-2-oxa-8-azaspiro[4.5]decan-8-yl)-6-(hydroxymethyl)pyrazin-2-ylthio)-3-chloropyridin-2-yl)azetidin-3-yl)-2-methylpropanenitrile] | – | > 10000 nM | 4 nM
C[C@@H]1OCC2(CCN(c3ncc(Sc4ccnc(N5CC[C@H]5CO)c4Cl)nc3CO)CC2)[C@@H]1N [Example 9, (3-((3S,4S)-4-amino-3-methyl-2-oxa-8-azaspiro[4.5]decan-8-yl)-6-(3-chloro-2-((S)-2-(hydroxymethyl)azetidin-1-yl)pyridin-4-ylthio)pyrazin-2-yl)methanol] | 220 nM | > 10000 nM | 1.3 nM
N[C@@H]1COCC12CCN(c1ncc(Sc3ccnc(N4CCCC4CO)c3Cl)nc1CO)CC2 (stereo partly drawn) [Example 7, (3-((S)-4-amino-2-oxa-8-azaspiro[4.5]decan-8-yl)-6-(3-chloro-2-(2-(hydroxymethyl)pyrrolidin-1-yl)pyridin-4-ylthio)pyrazin-2-yl)methanol] | 770 nM | > 10000 nM | 4.6 nM
C[C@@H]1OCC2(CCN(c3ncc(Sc4ccnc(N5CCCC5CC#N)c4Cl)nc3CO)CC2)[C@@H]1N (stereo partly drawn) [Example 18, 2-(1-(4-(5-((3S,4S)-4-amino-3-methyl-2-oxa-8-azaspiro[4.5]decan-8-yl)-6-(hydroxymethyl)pyrazin-2-ylthio)-3-chloropyridin-2-yl)pyrrolidin-2-yl)acetonitrile] | 240 nM | > 10000 nM | 1.9 nM
